Test system: Plasmodium berghei
Assay: Luciferase/luciferin-expressing antifolate-resistant parasites were used to infect a culture of HepG2 cells that were pre-incubated with compounds. Infected hepatocytes emit light due to the luciferase reaction. Assay results are presented as the percent inhibition of light emission compared to control. […]
Assay type: functional
Details: sporozoite; for IC90: read-out: LUCIFERASE INFECTION ASSAY - IC90
[1] = read-out: LUCIFERASE INFECTION ASSAY - IC50

SMILES | IC90 [µM] | IC50 [1] [µM] | further results
CC(=O)c1c(C)[nH]c(C(=O)OCC(=O)Nc2c(C)nn(-c3ccccc3)c2C)c1C | > 10 |  | IC50 (PBLUC_HILL_SLOPE 2.08, PBLUC_R_SQUARED 0.0451, read-out: LUCIFERASE INFECTION ASSAY - IC50): > 10 µM
CC1(C)C=Cc2cc(-c3noc(-c4ccccc4)n3)ccc2O1 | 0.379 |  | 
Cc1sc2ncnc(Sc3nnc(C(F)(F)F)n3C)c2c1C | > 10 | > 10 | 
COc1ccccc1NC(=S)N/N=C/c1ccc(N2CCOCC2)cc1 | > 10 |  | IC50 (PBLUC_HILL_SLOPE 0.342, PBLUC_R_SQUARED 0.162, read-out: LUCIFERASE INFECTION ASSAY - IC50): 1.98 µM
Cc1oc2c(c1C(=O)N1CCN(CCO)CC1)C(=O)c1ccccc1C2=O | > 10 |  | IC50 (HEPG2TOX_HILL_SLOPE 0.333, HEPG2TOX_R_SQUARED 0.261, PBLUC_HILL_SLOPE 0.243, PBLUC_R_SQUARED 0.141, read-out: LUCIFERASE INFECTION ASSAY - IC50): 8.15 µM
Cc1cc(C(=O)N/N=C/C(C)(C)C)nn1-c1ccc(C(C)C)cc1 | > 10.1 | > 10.1 | 
Cc1cccc(-c2noc(CNC(=O)Cc3ccc(-c4ccccc4)cc3)n2)c1 | 3.18 |  | IC50 (FFLUC_HILL_SLOPE 13.2, FFLUC_R_SQUARED 0.46, HEPG2TOX_HILL_SLOPE 2.91, HEPG2TOX_R_SQUARED 0.962, PBLUC_HILL_SLOPE 21.5, PBLUC_R_SQUARED 0.134, read-out: LUCIFERASE INFECTION ASSAY - IC50): 2.87 µM
COc1cc(OC)cc(-c2cc3c(Nc4ccc5c(c4)OCO5)nccc3[nH]2)c1 | 6.69 |  | IC50 (PBLUC_HILL_SLOPE 1.19, PBLUC_R_SQUARED 0.67, read-out: LUCIFERASE INFECTION ASSAY - IC50): 1.06 µM
COc1ccc(C2=NN=C/C2=N\Nc2ccc(C(F)(F)F)cc2)cc1 | 7.39 |  | IC50 (HEPG2TOX_HILL_SLOPE 2.77, HEPG2TOX_R_SQUARED 0.967, PBLUC_HILL_SLOPE 4.55, PBLUC_R_SQUARED 0.276, read-out: LUCIFERASE INFECTION ASSAY - IC50): 4.56 µM
C=S(=O)(N/C=C1/C(=O)c2ccccc2N(C)S1(=O)=O)c1ccccc1 (centres undefined) | > 8.77 | > 8.77 | 
Cc1ccc2sc(N(Cc3ccccc3)C(=O)CN3CCC(C(N)=O)CC3)nc2c1C | 4.19 |  | IC50 (PBLUC_HILL_SLOPE 23.7, PBLUC_R_SQUARED 0.191, read-out: LUCIFERASE INFECTION ASSAY - IC50): 3.82 µM
CN(CCO)c1ccc(C(=O)c2ccc(N(C)CCO)cc2)cc1 | 9.22 |  | IC50 (HEPG2TOX_HILL_SLOPE 1.17, HEPG2TOX_R_SQUARED 0.868, PBLUC_HILL_SLOPE 1.55, PBLUC_R_SQUARED 0.285, read-out: LUCIFERASE INFECTION ASSAY - IC50): 2.24 µM
CCOC(=O)c1c[nH]nc1S(=O)(=O)Nc1ccc[nH]c1=O | > 10 | > 10 | 
CCC(C)NC(=O)c1c(NC(=O)c2cc(F)ccc2F)nc2ccc(C)cn12 (centres undefined) | 3.36 |  | IC50 (HEPG2TOX_HILL_SLOPE 5, HEPG2TOX_R_SQUARED 0.803, PBLUC_HILL_SLOPE 11.7, PBLUC_R_SQUARED 0.232, read-out: LUCIFERASE INFECTION ASSAY - IC50): 2.78 µM
CN(C)CCCn1c(SCC(=O)N2c3ccccc3Sc3ccccc32)nc2ccccc2c1=O | 9.41 |  | IC50 (PBLUC_HILL_SLOPE 9.03, PBLUC_R_SQUARED 0.19, read-out: LUCIFERASE INFECTION ASSAY - IC50): 7.38 µM
CCOc1ccc2c(c1)sc(=N)n2Cc1ccc(Cl)cc1 | > 10 |  | IC50 (PBLUC_HILL_SLOPE 3.98, PBLUC_R_SQUARED 0.233, read-out: LUCIFERASE INFECTION ASSAY - IC50): 6.2 µM
CC(C)n1c(SCC(=O)N(Cc2ccco2)C2=CCCCC2)nc2ccccc2c1=O | 9.27 |  | IC50 (FFLUC_HILL_SLOPE 16.9, FFLUC_R_SQUARED 0.338, PBLUC_HILL_SLOPE 11.7, PBLUC_R_SQUARED 0.501, read-out: LUCIFERASE INFECTION ASSAY - IC50): 7.68 µM
COc1ccc(C(=O)N2CCC(Cc3ccccc3)CC2)c(O)c1 | > 10 |  | IC50 (HEPG2TOX_HILL_SLOPE 0.725, HEPG2TOX_R_SQUARED 0.627, PBLUC_HILL_SLOPE 3.95, PBLUC_R_SQUARED 0.49, read-out: LUCIFERASE INFECTION ASSAY - IC50): 7.88 µM
O=C1N(CCCc2cccnc2)C(=O)C2(CCN(Cc3ccsc3)CC2)N1Cc1ccccc1 | > 6.95 | > 6.95 | 
Cc1ccc(NC(=O)Cn2ccccc2=O)cc1S(=O)(=O)N1CCCCC1 | > 10 |  | IC50 (PBLUC_HILL_SLOPE 1.99, PBLUC_R_SQUARED 0.304, read-out: LUCIFERASE INFECTION ASSAY - IC50): 5.37 µM
Cc1ccc2nc(NC(=O)C3CCCC3)c(C(=O)NC3CCCC3)n2c1 | > 9.31 | > 9.31 | 
COC(=O)c1cnc(Sc2n[nH]c(=O)n2-c2ccc(Cl)cc2)c([N+](=O)[O-])c1 | > 8.09 | > 8.09 | 
O=C(c1cccs1)N1[C@@H]2CC[C@@H](C2)[C@H]1c1nc2cccc(OCc3ccc(F)cc3)c2[nH]1 | > 10 |  | IC50 (FFLUC_HILL_SLOPE 9.4, FFLUC_R_SQUARED 0.0879, PBLUC_HILL_SLOPE 2.58, PBLUC_R_SQUARED 0.515, read-out: LUCIFERASE INFECTION ASSAY - IC50): 7.57 µM

SMILES | IC90 [µM] | IC50 [1] [µM] | further results
Oc1ccc(/C=C/c2ccc3cccc(O)c3n2)cc1Br | 7.7 |  | IC50 (PBLUC_HILL_SLOPE 43.7, PBLUC_R_SQUARED 0.404, read-out: LUCIFERASE INFECTION ASSAY - IC50): 7.32 µM
O=[N+]([O-])c1ccsc1Oc1ccc(Cl)cc1Cl | > 11.4 | > 11.4 | 
O=c1c2ccsc2ncn1CCS(=O)(=O)N1CCN(C(c2ccc(F)cc2)c2ccc(F)cc2)CC1 | > 10 |  | IC50 (FFLUC_HILL_SLOPE 1.84, FFLUC_R_SQUARED 0.406, PBLUC_HILL_SLOPE 0.263, PBLUC_R_SQUARED 0.514, read-out: LUCIFERASE INFECTION ASSAY - IC50): 1.49 µM
CCOC(=O)c1c(N)sc(Sc2ccccc2[N+](=O)[O-])c1-c1ccccc1 | > 10 |  | IC50 (PBLUC_HILL_SLOPE 2.49, PBLUC_R_SQUARED 0.748, read-out: LUCIFERASE INFECTION ASSAY - IC50): 4.39 µM
COc1ccc(-c2cnc3cnc(-c4ccccc4C)cn23)cn1 | 4.17 | 2.21 | 
COc1ncccc1-c1cc2c(cn1)nc(Nc1cccc(C(F)(F)F)c1)n2C | > 10 |  | IC50 (PBLUC_HILL_SLOPE 1.56, PBLUC_R_SQUARED 0.782, read-out: LUCIFERASE INFECTION ASSAY - IC50): 2.89 µM
N#C/C(=C\c1cc(Cl)cc(Cl)c1O)c1ccc([N+](=O)[O-])cc1 | 6.14 |  | IC50 (PBLUC_HILL_SLOPE 3.19, PBLUC_R_SQUARED 0.599, read-out: LUCIFERASE INFECTION ASSAY - IC50): 3.08 µM
CN(C)CCCOc1ccc(-c2nnc3ccc(-c4cccc(OC(F)(F)F)c4)cn23)cc1 | > 10 |  | IC50 (PBLUC_HILL_SLOPE 3.54, PBLUC_R_SQUARED 0.437, read-out: LUCIFERASE INFECTION ASSAY - IC50): 7.74 µM
COc1ccc(OC)c(S(=O)(=O)N2[C@@H]3CC[C@@H](C3)[C@H]2c2nc3cccc(OCc4ccc(F)cc4)c3[nH]2)c1 | > 10 | > 10 | 
Cc1ccc(-c2nc(SCCC(N)=O)[nH]c2-c2ccc(C)cc2)cc1 | > 10 | > 10 | 
CC(C)(C)c1cc(C(=O)Nc2cc(-c3cccs3)nn2-c2ccc(F)cc2)n(Cc2ccccc2)n1 | > 6.61 |  | IC50 (HEPG2TOX_HILL_SLOPE 6.06, HEPG2TOX_R_SQUARED 0.212, read-out: LUCIFERASE INFECTION ASSAY - IC50): > 6.61 µM
COc1cc(OC)cc(-c2cnc3cnc(-c4ccccc4N(C)C)cn23)c1 | 3.18 |  | IC50 (HEPG2TOX_HILL_SLOPE 1.54, HEPG2TOX_R_SQUARED 0.879, PBLUC_HILL_SLOPE 8.17, PBLUC_R_SQUARED 0.657, read-out: LUCIFERASE INFECTION ASSAY - IC50): 2.43 µM
NC(=O)c1cc(Cl)ccc1OCc1ccc(OC(F)(F)F)cc1 | > 10 | > 10 | 
Cc1nc(SCC(=O)Nc2nc(Br)sc2Cc2ccc([N+](=O)[O-])cc2)sc1Cc1ccccc1 | > 10 |  | IC50 (FFLUC_HILL_SLOPE 16.2, FFLUC_R_SQUARED 0.412, read-out: LUCIFERASE INFECTION ASSAY - IC50): > 10 µM
CCN(CC)c1nc2c3c(nc4c(c3c1C#N)CC(c1ccccc1)O4)NC1(CCCCC1)N2 (centres undefined) | > 10 |  | IC50 (FFLUC_HILL_SLOPE 304, FFLUC_R_SQUARED 0.442, PBLUC_HILL_SLOPE 2.01, PBLUC_R_SQUARED 0.722, read-out: LUCIFERASE INFECTION ASSAY - IC50): 6.1 µM
O=C(COC(=O)c1cc(-c2ccc(OC(F)F)cc2)nc2ccccc12)Nc1nnc(-c2ccccc2)o1 | > 10 | > 10 | 
O=C(NC1CC1)c1ccc(-c2cnc3cnc(-c4ccccc4Cl)cn23)cc1 | > 8.49 |  | IC50 (HEPG2TOX_HILL_SLOPE 2.06, HEPG2TOX_R_SQUARED 0.921, PBLUC_HILL_SLOPE 2.15, PBLUC_R_SQUARED 0.563, read-out: LUCIFERASE INFECTION ASSAY - IC50): 4.01 µM
COc1cc(C(=O)Nc2cccc(-n3cnnn3)c2)cc(OC)c1OC | > 9.29 |  | IC50 (PBLUC_HILL_SLOPE 1.51, PBLUC_R_SQUARED 0.135, read-out: LUCIFERASE INFECTION ASSAY - IC50): 5.06 µM
O=c1cc(CNc2ccccc2N2CCCCC2)nc2sccn12 | > 10 | 9.19 | 
O=C1Nc2ccc([N+](=O)[O-])cc2C12NNc1ccccc1O2 (centres undefined) | > 10 | > 10 | 
CS(=O)(=O)c1ccc(-c2cc(C3(CNc4cccc(Cl)c4)CC3)ccn2)cc1 | > 10 | > 10 | 
Cc1c(C(=O)Nc2cccc(Cl)c2)sc2nc(C(F)(F)F)nn12 | > 9.15 | > 9.15 | 
